Where two headings read alike, the source gives them in different places.
How the values were obtained:
[1] = molecular target: T1, CLK1(h) (Homo sapiens, UniProt P49759); experiment: radiometric protein kinase assay, CLK1; format: biochemical
T1 construct: purchased Eurofins, Dundee, Scotland
Protocol: (§1) Enzymatic biochemical activities were evaluated in radiometric protein kinase assays (Eurofins, Dundee, Scotland). Kinases are incubated with buffer, substrate and [γ-^33P]-ATP (specific activity approx. 500 cpm/pmol, concentration as required). The reaction is initiated by the addition of the MgATP mix. After incubation for 40 minutes at room temperature, the reaction is stopped by the addition of 3% phosphoric acid solution. 10 μL of the reaction is then spotted onto a P30 filtermat and washed three times for 5 minutes in 75 mM phosphoric acid and once in methanol prior to drying and scintillation counting.
(§2) All compounds are prepared to 50× final assay concentration in 100% DMSO. Positive control wells contain all components of the reaction with 2% DMSO. Blank wells contain all components of the reaction, with a reference inhibitor replacing the compound of interest. Each kinase is assigned a standard assay concentration of ATP within 20 μM of its apparent KM. Compounds were screened at 1 μM in duplicate or tested at 10 concentrations at half log dilution starting from 10 μM in singlicate. Dose response curves were fitted with four parameter logistic curve to obtain IC50 values. The average coefficient of variation (CV) of the conducted assay is 4.4%.

[2] = molecular target: T2, CDK6/cyclinD3(h) (Homo sapiens, UniProt Q00534); experiment: radiometric protein kinase assay, CDK6; format: biochemical; conditions: enzyme inhibition, ATP 20 μM
T2 construct: purchased Eurofins, Dundee, Scotland
Protocol: as §1, §2

[3] = molecular target: T3, CLK4(h) (Homo sapiens, UniProt Q9HAZ1); experiment: radiometric protein kinase assay, CLK4; format: biochemical; conditions: enzyme inhibition, ATP 10 μM
T3 construct: purchased Eurofins, Dundee, Scotland
Protocol: as §1, §2

[4] = tested on: SK-MEL-2/Luc-MDM2 cells (MDM2-Luc exon-skipping reporter); experiment: cell-based MDM2-Luc exon-skipping reporter assay; conditions: for MDM2/Luc: luciferase activation vs DMSO control, average of three experiments
[5] = molecular target: T4, CLK3(h) (Homo sapiens, UniProt P49761); experiment: radiometric protein kinase assay, CLK3; format: biochemical
T4 construct: purchased Eurofins, Dundee, Scotland
Protocol: as §1, §2

[6] = molecular target: T5, CDK4/cyclinD3(h) (Homo sapiens, UniProt P11802); experiment: radiometric protein kinase assay, CDK4; format: biochemical; conditions: enzyme inhibition, ATP 20 μM
T5 construct: purchased Eurofins, Dundee, Scotland
Protocol: as §1, §2

[7] = molecular target: T6, CLK2(h) (Homo sapiens, UniProt P49760); experiment: radiometric protein kinase assay, CLK2; format: biochemical; conditions: enzyme inhibition, ATP 10 μM
T6 construct: purchased Eurofins, Dundee, Scotland
Protocol: as §1, §2

[8] = molecular target: T7, CDK1/cyclinB(h) (Homo sapiens, UniProt P06493); experiment: radiometric protein kinase assay, CDK1; format: biochemical; conditions: enzyme inhibition, ATP 45 μM
T7 construct: purchased Eurofins, Dundee, Scotland
Protocol: as §1, §2

[9] = tested on: MDM2 alternate splicing in Rh-18 cells; experiment: Rh-18 MDM2 RT-PCR gel-based assay (orthogonal secondary assay); format: cell-based; conditions: 10 μM, 8 h
Protocol: These hits were then subjected to a confirmatory assay in the Rh-18 MDM2 RT-PCR gel-based assay at a concentration of 10 μM.
Referring to FIG. 6, cells were exposed to 0.5% DMSO, 0.2 μM sudemycin D6 or […] CGP-74514A for 8 h. Total RNA was extracted by RNeasy Mini Kit (Qiagen). High capacity RNA-to-cDNA kit (Life technologies) was used to convert the RNA to cDNA.
Referring to FIG. 7, cells were exposed to 0.5% DMSO (lane 1), 1 μM sudemycin D6 (lane 2), 10 μM Compound 14 (lane 3), and 10 μM Compound 15 (lane 4) for 8 h. The total RNA was extracted by RNeasy Mini Kit (Qiagen). High capacity RNA-to-cDNA kit (Life technologies) was used to convert the RNA to cDNA. […] Ubiquitin transcripts (165 bp) in the same cells were used as a control (Fan et al. (2011) ACS Chem. Biol. 6: 582-9).

T2 sequence (Q00534 whole entry): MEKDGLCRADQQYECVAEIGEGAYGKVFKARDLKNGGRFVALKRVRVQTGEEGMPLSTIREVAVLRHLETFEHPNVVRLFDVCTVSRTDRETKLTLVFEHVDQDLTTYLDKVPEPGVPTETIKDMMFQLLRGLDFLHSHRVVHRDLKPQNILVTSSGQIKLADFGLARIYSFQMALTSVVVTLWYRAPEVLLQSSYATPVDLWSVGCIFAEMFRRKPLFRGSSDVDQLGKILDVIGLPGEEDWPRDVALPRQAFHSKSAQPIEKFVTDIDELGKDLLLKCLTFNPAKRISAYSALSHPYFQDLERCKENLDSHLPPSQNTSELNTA
T2 sequence (P30281 whole entry partner): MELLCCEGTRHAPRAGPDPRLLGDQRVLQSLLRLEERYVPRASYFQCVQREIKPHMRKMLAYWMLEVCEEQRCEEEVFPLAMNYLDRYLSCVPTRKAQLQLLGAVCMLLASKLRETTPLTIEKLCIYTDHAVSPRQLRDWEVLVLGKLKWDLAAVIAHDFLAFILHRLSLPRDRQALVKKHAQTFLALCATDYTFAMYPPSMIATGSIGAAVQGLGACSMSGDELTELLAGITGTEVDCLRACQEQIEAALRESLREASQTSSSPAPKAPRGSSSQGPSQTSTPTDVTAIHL
T1 sequence (P49759 whole entry): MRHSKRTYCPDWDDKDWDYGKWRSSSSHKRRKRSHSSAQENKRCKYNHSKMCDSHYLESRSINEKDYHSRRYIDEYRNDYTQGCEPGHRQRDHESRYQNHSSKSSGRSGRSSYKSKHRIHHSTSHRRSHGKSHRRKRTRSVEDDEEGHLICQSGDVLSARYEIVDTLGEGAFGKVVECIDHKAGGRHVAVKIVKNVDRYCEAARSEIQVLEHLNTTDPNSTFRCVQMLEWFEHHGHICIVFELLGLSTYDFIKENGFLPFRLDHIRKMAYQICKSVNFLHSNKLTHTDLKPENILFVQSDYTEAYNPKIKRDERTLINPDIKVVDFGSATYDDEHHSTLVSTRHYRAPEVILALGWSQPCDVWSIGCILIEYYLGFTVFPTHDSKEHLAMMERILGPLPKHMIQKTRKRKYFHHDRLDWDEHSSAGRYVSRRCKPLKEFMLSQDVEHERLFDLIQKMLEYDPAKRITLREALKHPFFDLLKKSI
T5 sequence (P11802 whole entry): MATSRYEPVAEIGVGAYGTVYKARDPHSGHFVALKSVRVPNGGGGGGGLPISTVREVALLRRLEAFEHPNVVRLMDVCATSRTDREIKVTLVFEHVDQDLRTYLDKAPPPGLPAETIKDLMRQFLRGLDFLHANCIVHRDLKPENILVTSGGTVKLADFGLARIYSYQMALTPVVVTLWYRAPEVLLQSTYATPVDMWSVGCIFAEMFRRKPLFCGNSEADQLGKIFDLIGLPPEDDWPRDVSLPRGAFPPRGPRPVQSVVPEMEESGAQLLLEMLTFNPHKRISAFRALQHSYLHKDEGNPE
T5 sequence (P30281 whole entry partner): as the sequence (P30281 whole entry partner) above
T6 sequence (P49760 whole entry): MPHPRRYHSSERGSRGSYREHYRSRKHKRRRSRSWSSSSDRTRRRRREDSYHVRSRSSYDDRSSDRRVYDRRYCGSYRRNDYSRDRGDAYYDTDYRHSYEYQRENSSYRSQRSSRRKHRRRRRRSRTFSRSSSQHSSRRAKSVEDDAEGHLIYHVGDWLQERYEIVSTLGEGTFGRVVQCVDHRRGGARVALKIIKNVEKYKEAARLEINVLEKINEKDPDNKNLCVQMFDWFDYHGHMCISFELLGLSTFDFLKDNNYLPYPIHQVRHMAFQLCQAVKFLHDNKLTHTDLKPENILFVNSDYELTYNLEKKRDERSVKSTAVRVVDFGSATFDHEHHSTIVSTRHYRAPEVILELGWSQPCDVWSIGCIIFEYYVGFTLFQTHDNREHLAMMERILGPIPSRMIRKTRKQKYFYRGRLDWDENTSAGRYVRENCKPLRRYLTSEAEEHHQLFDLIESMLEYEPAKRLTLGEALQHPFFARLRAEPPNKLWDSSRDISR
T7 sequence (P06493 whole entry): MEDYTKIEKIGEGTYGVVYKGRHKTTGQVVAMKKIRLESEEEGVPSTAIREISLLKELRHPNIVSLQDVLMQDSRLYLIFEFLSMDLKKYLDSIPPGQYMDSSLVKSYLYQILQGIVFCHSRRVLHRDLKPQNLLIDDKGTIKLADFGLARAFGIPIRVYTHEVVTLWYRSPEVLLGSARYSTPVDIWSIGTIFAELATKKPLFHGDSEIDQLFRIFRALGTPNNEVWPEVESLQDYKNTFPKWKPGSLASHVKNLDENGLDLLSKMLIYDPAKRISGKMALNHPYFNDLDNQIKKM
T7 sequence (P14635 whole entry partner): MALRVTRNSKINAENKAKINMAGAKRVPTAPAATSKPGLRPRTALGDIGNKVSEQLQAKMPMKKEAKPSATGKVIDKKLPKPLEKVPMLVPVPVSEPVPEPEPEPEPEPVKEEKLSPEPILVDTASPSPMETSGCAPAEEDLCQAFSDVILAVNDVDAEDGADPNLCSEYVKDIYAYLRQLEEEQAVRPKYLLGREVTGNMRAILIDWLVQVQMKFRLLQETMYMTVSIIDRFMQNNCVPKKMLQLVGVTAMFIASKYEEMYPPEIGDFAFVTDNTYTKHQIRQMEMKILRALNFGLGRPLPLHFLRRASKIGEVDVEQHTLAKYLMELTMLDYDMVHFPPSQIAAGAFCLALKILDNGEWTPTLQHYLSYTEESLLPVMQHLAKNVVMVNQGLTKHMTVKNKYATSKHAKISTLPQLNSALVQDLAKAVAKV
T3 sequence (Q9HAZ1 whole entry): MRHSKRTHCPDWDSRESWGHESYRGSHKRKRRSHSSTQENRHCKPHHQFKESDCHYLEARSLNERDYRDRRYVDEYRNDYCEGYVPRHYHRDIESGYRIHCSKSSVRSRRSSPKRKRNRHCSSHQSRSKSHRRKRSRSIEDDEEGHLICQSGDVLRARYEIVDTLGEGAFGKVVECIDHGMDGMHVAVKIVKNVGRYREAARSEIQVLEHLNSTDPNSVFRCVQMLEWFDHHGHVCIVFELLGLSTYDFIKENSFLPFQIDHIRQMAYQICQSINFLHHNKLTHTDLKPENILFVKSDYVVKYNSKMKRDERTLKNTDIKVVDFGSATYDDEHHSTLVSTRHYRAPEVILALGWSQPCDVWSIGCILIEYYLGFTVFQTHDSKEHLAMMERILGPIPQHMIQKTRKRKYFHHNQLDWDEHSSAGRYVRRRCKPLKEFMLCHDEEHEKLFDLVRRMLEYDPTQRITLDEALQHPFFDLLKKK
T4 sequence (P49761 whole entry): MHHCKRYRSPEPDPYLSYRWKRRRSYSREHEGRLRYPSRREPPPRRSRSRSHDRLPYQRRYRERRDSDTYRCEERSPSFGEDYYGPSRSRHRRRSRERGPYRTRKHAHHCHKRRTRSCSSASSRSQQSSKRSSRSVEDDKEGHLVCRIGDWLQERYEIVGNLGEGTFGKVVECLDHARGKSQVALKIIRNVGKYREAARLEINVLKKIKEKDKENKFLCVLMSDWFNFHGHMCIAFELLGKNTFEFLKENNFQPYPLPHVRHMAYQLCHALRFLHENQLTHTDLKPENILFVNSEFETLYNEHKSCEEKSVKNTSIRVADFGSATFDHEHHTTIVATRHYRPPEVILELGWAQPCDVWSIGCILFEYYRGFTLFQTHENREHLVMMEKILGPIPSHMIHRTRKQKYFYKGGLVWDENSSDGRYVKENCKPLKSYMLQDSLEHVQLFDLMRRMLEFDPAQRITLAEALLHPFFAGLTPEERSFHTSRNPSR

Structure (SMILES) | IC50 [1] | IC50 [2] | IC50 [3] | MDM2/Luc [4] | IC50 [5] | IC50 [6] | IC50 [7] | IC50 [8] | activity in the Rh-18 MDM2 RT-PCR gel-based confirmatory assay [9] | IC50 ([1]; enzyme inhibition, radiometric, ATP 10 μM, read-out: IC50 (nM) CLK1) | luciferase response (Luc fold) in the MDM2-Luc reporter assay ([4]; compared with less potent CLK inhibitors of the series) | MDM2-Luc activity ([4]; result in words, no concentration stated) | IC50 ([5]; enzyme inhibition, radiometric, ATP 90 μM, read-out: IC50 (nM) CLK3)
CCn1cnc2c(Nc3cccc(Cl)c3)nc(NC3CCCCC3N)nc21 (racemic) [CGP-74514A (1), Racemicm-(Cis-2-Aminocyclohexyl)-N-(3-Chlorophenyl)-9-Ethyl-9H-Purine-2,6-Diamine, reference compound] | 148 nM | > 1000 nM | 104 nM | Active | > 1000 nM | 573 nM | 111 nM | 382 nM | clear activity | – | – | – | –
CC(=O)Nc1cc(Cl)cc(Nc2nc(NC3CCCCC3N)nc3c2ncn3C(C)C)c1 (racemic) [Compound 15, Racemic N-Cis(3-((2-((2-Aminocyclohexyl)Amino)-9-Isopropyl-9H-Purin-6-Yl)Amino)-5-Chlorophenyl)Acetamide] | – | > 1000 nM | 64 nM | Active | – | 930 nM | 13 nM | > 1000 nM | confirmation | 19 nM | stronger luciferase response | strong MDM2-Luc activity | > 1000 nM

— patent US10722515B2, “Dual CLK/CDK1 inhibitors for cancer treatment” (SRI INTERNATIONAL, priority 2016, dated 2020)
